Patent US20090221598A1, “Use of Sanglifehrin in HCV” (priority 2005, published 2009)
pIC50: −log10 of the molar value.

Key:
[1] = test system: human monocytic cell line THP1; assay: Cytotoxicity, MTT read-out; assay type: cell-based
Protocol: Cytotoxicity is determined using the human monocytic cell line THP1 (5×10^4 cells/well) which are incubated in the presence of IFNgamma (100 U/ml) and LPS (5 microgram/ml) plus test compound (up to 10 micromolar) for 24 to 72 h at 37° C. Living cells are quantified using the colourimetric read-out MTT which measures mitochondrial dehydrogenase enzymatic activity in living cells (Mossman 1983). Macrolides of the invention, e.g. compounds of formula IX and their pharmaceutically acceptable salts, e.g. Sanglifehrins A, B, C and D, have IC50 of about 1000-5000 nM after 24 h incubation in this assay. (Mossman T. J. (1983), Rapid calorimetric assay for cellular growth and survival: application to proliferation and cytotoxic assays, J. Imm. Methods, 65, 55-63).

FK binding protein = assay: Standard test for FK binding protein binding activity; details: standard tests
calcineurin = assay: Standard test for calcineurin activity; assay type: biochemical; details: standard tests

Substance	pIC50 [1]	FK binding protein binding activity (FK binding protein)	inhibition of calcineurin activity (calcineurin)
Sanglifehrin B	5.30 to 6.00	do not have FK binding protein binding activity	do not inhibit calcineurin activity
Sanglifehrin A	–	do not have FK binding protein binding activity	do not inhibit calcineurin activity
